Measurements reported in the supplement of paper PMC10307832.

Experiments:
Test in all cases: relative viability (nuclei count vs DMSO), 5 days (fraction); higher = more cells survive
EPLC-272H = test system: EPLC-272H
How it was run: (§1)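 Medians of duplicate plates are given as relative viability. That measure is the nuclei count in treated wells divided by the count in vehicle wells. Counts were taken on 4× images of lung cancer cell lines in 1536-well plates, 5 days after pin-tool dosing the day after seeding with one drug alone or a fixed anchor-drug dose plus five library-drug doses (not always all listed) in √10 steps.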

NCI-H358 = test system: NCI-H358
How it was run: as §1

HCC-827 = test system: HCC-827
How it was run: as §1

LU99A = test system: LU99A
How it was run: as §1

NCI-H2087 = test system: NCI-H2087
How it was run: as §1

NCI-H2085 = test system: NCI-H2085
How it was run: as §1

NCI-H1395 = test system: NCI-H1395
How it was run: as §1

NCI-H1437 = test system: NCI-H1437
How it was run: as §1

NCI-H1666 = test system: NCI-H1666
How it was run: as §1

H3255 = test system: H3255
How it was run: as §1

HOP-62 = test system: HOP-62
How it was run: as §1

HCC-44 = test system: HCC-44
How it was run: as §1

PC-3 [JPC-3] = test system: PC-3 [JPC-3]
How it was run: as §1

NCI-H2342 = test system: NCI-H2342
How it was run: as §1

NCI-H647 = test system: NCI-H647
How it was run: as §1

201T = test system: 201T
How it was run: as §1

COR-L 105 = test system: COR-L 105
How it was run: as §1

BEN = test system: BEN
How it was run: as §1

NCI-H1975 = test system: NCI-H1975
How it was run: as §1

LOU-NH91 = test system: LOU-NH91
How it was run: as §1

LCLC-97TM1 = test system: LCLC-97TM1
How it was run: as §1

EKVX = test system: EKVX
How it was run: as §1

SW 1573 = test system: SW 1573
How it was run: as §1

Which results are given for `NC(=O)Nc1cc(-c2cccc(F)c2)sc1C(=O)N[C@H]1CCCNC1` [AZD7762] + CCNC(=O)c1noc(-c2cc(C(C)C)c(O)cc2O)c1-c1ccc(CN2CCOCC2)cc1 [Luminespib] (partner 0.01 µM)?
relative viability (EPLC-272H; first compound 0.01 µM): 0.55; relative viability (EPLC-272H; first compound 0.03162 µM): 0.303; relative viability (EPLC-272H; first compound 0.1 µM): 0.319; relative viability (EPLC-272H; first compound 0.3162 µM): 0.459; relative viability (EPLC-272H; first compound 1 µM): 0.143; relative viability (NCI-H358; first compound 0.01 µM): 0.275; relative viability (NCI-H358; first compound 0.03162 µM): 0.292; relative viability (NCI-H358; first compound 0.1 µM): 0.307; relative viability (NCI-H358; first compound 0.3162 µM): 0.545; relative viability (NCI-H358; first compound 1 µM): 0.142; relative viability (HCC-827; first compound 0.01 µM): 0.598; relative viability (HCC-827; first compound 0.03162 µM): 0.677; relative viability (HCC-827; first compound 0.1 µM): 0.604; relative viability (HCC-827; first compound 0.3162 µM): 0.459; relative viability (HCC-827; first compound 1 µM): 0.213; relative viability (LU99A; first compound 0.01 µM): 0.255; relative viability (LU99A; first compound 0.03162 µM): 0.265; relative viability (LU99A; first compound 0.1 µM): 0.357; relative viability (LU99A; first compound 0.3162 µM): 0.201; relative viability (LU99A; first compound 1 µM): 0.207; relative viability (NCI-H2087; first compound 0.01 µM): 0.203; relative viability (NCI-H2087; first compound 0.03162 µM): 0.145; relative viability (NCI-H2087; first compound 0.1 µM): 0.237; relative viability (NCI-H2087; first compound 0.3162 µM): 0.173; relative viability (NCI-H2087; first compound 1 µM): 0.162; relative viability (NCI-H2085; first compound 0.01 µM): 0.47; relative viability (NCI-H2085; first compound 0.03162 µM): 0.468; relative viability (NCI-H2085; first compound 0.1 µM): 0.475; relative viability (NCI-H2085; first compound 0.3162 µM): 0.459; relative viability (NCI-H2085; first compound 1 µM): 0.374; relative viability (NCI-H1395; first compound 0.01 µM): 0.699; relative viability (NCI-H1395; first compound 0.03162 µM): 0.788; relative viability (NCI-H1395; first compound 0.1 µM): 0.888; relative viability (NCI-H1395; first compound 0.3162 µM): 0.468; relative viability (NCI-H1395; first compound 1 µM): 0.341; relative viability (NCI-H1437; first compound 0.01 µM): 1.17; relative viability (NCI-H1437; first compound 0.03162 µM): 1.18; relative viability (NCI-H1437; first compound 0.1 µM): 1.2; relative viability (NCI-H1437; first compound 0.3162 µM): 1.13; relative viability (NCI-H1437; first compound 1 µM): 0.79; relative viability (NCI-H1666; first compound 0.01 µM): 1.11; relative viability (NCI-H1666; first compound 0.03162 µM): 1.07; relative viability (NCI-H1666; first compound 0.1 µM): 1.18; relative viability (NCI-H1666; first compound 0.3162 µM): 1.03; relative viability (NCI-H1666; first compound 1 µM): 0.97; relative viability (H3255; first compound 0.01 µM): 1.02; relative viability (H3255; first compound 0.03162 µM): 0.982; relative viability (H3255; first compound 0.1 µM): 0.975; relative viability (H3255; first compound 0.3162 µM): 0.913; relative viability (H3255; first compound 1 µM): 0.962; relative viability (HOP-62; first compound 0.01 µM): 0.983; relative viability (HOP-62; first compound 0.03162 µM): 0.931; relative viability (HOP-62; first compound 0.1 µM): 0.606; relative viability (HOP-62; first compound 0.3162 µM): 0.902; relative viability (HOP-62; first compound 1 µM): 0.65; relative viability (HCC-44; first compound 0.01 µM): 1.14; relative viability (HCC-44; first compound 0.03162 µM): 0.997; relative viability (HCC-44; first compound 0.1 µM): 0.918; relative viability (HCC-44; first compound 0.3162 µM): 0.96; relative viability (HCC-44; first compound 1 µM): 0.423; relative viability (PC-3 [JPC-3]; first compound 0.01 µM): 0.735; relative viability (PC-3 [JPC-3]; first compound 0.03162 µM): 0.67; relative viability (PC-3 [JPC-3]; first compound 0.1 µM): 0.702; relative viability (PC-3 [JPC-3]; first compound 0.3162 µM): 0.713; relative viability (PC-3 [JPC-3]; first compound 1 µM): 0.673; relative viability (NCI-H2342; first compound 0.01 µM): 0.69; relative viability (NCI-H2342; first compound 0.03162 µM): 0.696; relative viability (NCI-H2342; first compound 0.1 µM): 0.731; relative viability (NCI-H2342; first compound 0.3162 µM): 0.819; relative viability (NCI-H2342; first compound 1 µM): 0.676; relative viability (NCI-H647; first compound 0.01 µM): 0.118; relative viability (NCI-H647; first compound 0.03162 µM): 0.163; relative viability (NCI-H647; first compound 0.1 µM): 0.0996; relative viability (NCI-H647; first compound 0.3162 µM): 0.119; relative viability (NCI-H647; first compound 1 µM): 0.101; relative viability (201T; first compound 0.01 µM): 1.11; relative viability (201T; first compound 0.03162 µM): 1.07; relative viability (201T; first compound 0.1 µM): 1.06; relative viability (201T; first compound 0.3162 µM): 1.14; relative viability (201T; first compound 1 µM): 0.913; relative viability (COR-L 105; first compound 0.01 µM): 0.743; relative viability (COR-L 105; first compound 0.03162 µM): 0.585; relative viability (COR-L 105; first compound 0.1 µM): 0.696; relative viability (COR-L 105; first compound 0.3162 µM): 0.648; relative viability (COR-L 105; first compound 1 µM): 0.401; relative viability (BEN; first compound 0.01 µM): 0.16; relative viability (BEN; first compound 0.03162 µM): 0.665; relative viability (BEN; first compound 0.1 µM): 0.188; relative viability (BEN; first compound 0.3162 µM): 0.43; relative viability (BEN; first compound 1 µM): 0.533; relative viability (NCI-H1975; first compound 0.01 µM): 0.21; relative viability (NCI-H1975; first compound 0.03162 µM): 0.201; relative viability (NCI-H1975; first compound 0.1 µM): 0.0969; relative viability (NCI-H1975; first compound 0.3162 µM): 0.173; relative viability (NCI-H1975; first compound 1 µM): 0.127; relative viability (LOU-NH91; first compound 0.01 µM): 0.302; relative viability (LOU-NH91; first compound 0.03162 µM): 0.317; relative viability (LOU-NH91; first compound 0.1 µM): 0.403; relative viability (LOU-NH91; first compound 0.3162 µM): 0.309; relative viability (LOU-NH91; first compound 1 µM): 0.379; relative viability (LCLC-97TM1; first compound 0.01 µM): 0.876; relative viability (LCLC-97TM1; first compound 0.03162 µM): 0.706; relative viability (LCLC-97TM1; first compound 0.1 µM): 0.738; relative viability (LCLC-97TM1; first compound 0.3162 µM): 0.771; relative viability (LCLC-97TM1; first compound 1 µM): 0.786; relative viability (EKVX; first compound 0.01 µM): 0.827; relative viability (EKVX; first compound 0.03162 µM): 0.88; relative viability (EKVX; first compound 0.1 µM): 0.826; relative viability (EKVX; first compound 0.3162 µM): 0.82; relative viability (EKVX; first compound 1 µM): 0.65; relative viability (SW 1573; first compound 0.01 µM): 0.885; relative viability (SW 1573; first compound 0.03162 µM): 0.272; relative viability (SW 1573; first compound 0.1 µM): 0.166; relative viability (SW 1573; first compound 0.3162 µM): 0.169; relative viability (SW 1573; first compound 1 µM): 0.161
